Experimental data published in patent publication US20230381142A1, “ANTILEISHMANIAL COMPOUNDS, COMPOSITIONS AND USE THEREOF” (TRUSTEES OF BOSTON UNIVERSITY, priority 2022, published 2023).
pEC50: −log10 of the molar value. Where two headings read alike, the source gives them in different places.

What was measured:
[1] = tested on: L. donovani intracellular amastigotes infecting THP-1 macrophages; assay: GSK intramacrophage L. donovani assay (LD AMMAC, inMac; Assay Conditions C); format: cell-based; details: Leishmania donovani; for pEC50: THP-1 cells, values marked c, read-out: L. donovani amastigotes EC50 (THP-1 cells); for EC50: values marked c: THP-1 cells, read-out: L. donovani amastigotes EC50 (μM, THP-1 or B10R cells)
Method: Assay Conditions C: The intramacrophage Leishmania donovani activity assay was performed as described in Antimicrob Agents Chemother (2013) 57(7):2913-22.
(§1) The intramacrophage Leishmania donovani activity assay (LD AMMAC) at GlaxoSmithKline was performed as described.
(§2) Given the literature precedents described above and the apparent narrow tolerance for R^3 substitutions observed in the primary screen compounds, a thorough and methodical assessment was undertaken of tolerated groups at the three points of diversity (R^1/R^2/R^3) for the core. At this stage of the project, all analogues were assessed using a battery of assays performed in-house at GlaxoSmithKline. For antileishmanial activity, GSK's inMac assay was utilized. This assay provides two readouts of compound potency: average number of intracellular amastigotes per infected cell (AMMAC) EC50, percentage of infected cells per well (INFCELL) EC50, as well as a toxicity output derived from the number of host cells (MAC EC50). In addition, compounds were assessed for toxicity against HepG2 cells (HEPG2 EC50). Here, AMMAC EC50 values were focused on for relative potency assessments. […] It should be noted that for all compounds assessed in this project, the measured toxicity against THP-1 macrophages either equaled or exceeded that of HepG2 hepatocytes, therefore the MAC SI is used here as the more conservative estimate of therapeutic index.

[2] = GSK inMac assay, host cell toxicity readout (LD MAC); format: cell-based, human; details: human
Method: as §1, §2

[3] = footnote c, read-out: THP-1 Host Cell CC50

Row | SMILES | pEC50 [1] | CC50 [2, 3] | EC50 [1] | CC50 ([2]; host THP-1 cells)
1 | COc1ccc(N2C(=O)c3[nH]nc(-c4ccc5c(c4)CCC5)c3C2c2ccc(F)cc2)cc1 (centres unmarked) [CMLD010980] | 5.30 | 7.9 µM |  | 
2 | COc1ccc(N2C(=O)c3[nH]nc(CCC=C(C)C)c3C2c2ccc(F)cc2)cc1 (centres unmarked) [CMLD010981] | 5.20 | 20 µM |  | 
3 | CCCn1nc(CC(C)C)c2c1C(=O)N(c1ccc(OC)cc1)C2c1ccc(F)cc1 (centres unmarked) [CMLD010982] | 5.30 | 25.1 µM |  | 
4 | C=CCn1nc2c(c1CC(C)C)C(c1ccc(F)cc1)N(c1ccc(OC)cc1)C2=O (centres unmarked) [CMLD010984] |  |  | 6.3 µM | 31.6 µM
5 | C=CCn1nc(CC(C)C)c2c1C(=O)N(c1ccc(OC)cc1)C2c1ccc(F)cc1 (centres unmarked) [CMLD010985] | 5.60 | 31.6 µM |  | 
6 | COc1ccc(N2C(=O)c3nn(C)c(CC(C)C)c3C2c2ccc(F)cc2)cc1 (centres unmarked) [CMLD010988] |  |  | 7.9 µM | 25.1 µM
7 | COc1ccc(N2C(=O)c3c(c(CC(C)C)nn3C)C2c2ccc(F)cc2)cc1 (centres unmarked) [CMLD010989] | 5.80 | 25.1 µM |  | 
8 | CCCn1nc2c(c1CC(C)C)C(c1ccc(F)cc1)N(c1ccc(OC)cc1)C2=O (centres unmarked) [CMLD010990] |  |  | 7.9 µM | 25.1 µM
9 | COc1ccc(N2C(=O)c3[nH]nc(CC(C)C)c3C2c2cncs2)cc1 (centres unmarked) [CMLD010991] | 4.80 | > 50 µM |  | 
10 | COc1ccc(N2C(=O)c3[nH]nc(CC(C)C)c3C2c2ccc(F)cc2)c(OC)c1 (centres unmarked) [CMLD010992] | 4.70 | 31.6 µM |  | 
11 | CC(C)Cc1n[nH]c2c1[C@H](c1ccc(F)cc1)N(c1ccc3ncnn3c1)C2=O [CMLD010993] | 5.00 | 25.1 µM |  | 
12 | COc1ccc(N2C(=O)c3[nH]nc(CC(C)C)c3C2c2ccccc2OC)cc1 (centres unmarked) [CMLD010994] | 6.30 | 25.1 µM |  | 
13 | COc1ccc(N2C(=O)c3[nH]nc(CC(C)C)c3C2c2cc(C(F)(F)F)ccc2C(F)(F)F)cc1 (centres unmarked) [CMLD010996] | 5.20 | 25.1 µM |  | 
14 | CC(C)Cc1n[nH]c2c1C(c1ccccc1Cl)N(c1ccc(-n3ccnc3)cc1)C2=O (centres unmarked) [CMLD010998] | 5.20 | ≥ 50.1 µM |  | 
15 | C=CCCc1n[nH]c2c1C(c1ccc(F)cc1)N(c1ccc(OC)cc1)C2=O (centres unmarked) [CMLD011024] | 5.80 | 3.2 µM |  | 
16 | C=C(C)CCc1n[nH]c2c1C(c1ccc(F)cc1)N(c1ccc(OC)cc1)C2=O (centres unmarked) [CMLD011025] | 6.30 | 1.6 µM |  | 
17 | COc1ccc(CN2C(=O)c3[nH]nc(CC(C)C)c3C2c2ccc(F)cc2)cc1 (centres unmarked) [CMLD011026] | 4.90 | 31.6 µM |  | 
18 | COc1ccc(N2C(=O)c3[nH]nc(CC(C)C)c3C2c2ccc(OC)nc2)cc1 (centres unmarked) [CMLD011027] | < 4.30 | > 50 µM |  | 
19 | COc1ccc(N2C(=O)c3[nH]nc(CC(C)C)c3C2c2cc(F)nc(F)c2)cc1 (centres unmarked) [CMLD011028] | < 4.30 | > 50 µM |  | 
20 | CC(C)Cc1n[nH]c2c1C(c1ccc(F)cc1)N(c1ccc(O)cc1)C2=O (centres unmarked) [CMLD011029] | 5.30 | 39.8 µM |  | 
21 | CC(C)Cc1n[nH]c2c1C(c1ccc(F)cc1)N(C1CCOCC1)C2=O (centres unmarked) [CMLD011030] | 4.50 | > 50 µM |  | 
22 | CC(C)Cc1n[nH]c2c1C(c1ccc(F)cc1)N(c1ccc(C(=O)O)cc1)C2=O (centres unmarked) [CMLD011031] | < 4.30 | > 50 µM |  | 
23 | COc1ccc(N2C(=O)c3[nH]nc(CC(C)C)c3C2c2ccc(C(=O)O)cc2)cc1 (centres unmarked) [CMLD011032] | < 4.30 | > 50 µM |  | 
24 | COC(=O)c1ccc(N2C(=O)c3[nH]nc(CC(C)C)c3C2c2ccc(F)cc2)cc1 (centres unmarked) [CMLD011033] | 5.80 | 31.6 µM |  | 
25 | COC(=O)c1ccc(C2c3c(CC(C)C)n[nH]c3C(=O)N2c2ccc(OC)cc2)cc1 (centres unmarked) [CMLD011034] | 4.60 | 39.8 µM |  | 
26 | CCC(C)(COC(C)=O)CN1C(=O)c2[nH]nc(CC(C)C)c2C1c1ccc(F)cc1 (centres unmarked) [CMLD011035] | 5.30 | 25.1 µM |  | 

Row | SMILES | pEC50 [1] | CC50 [2, 3] | EC50 [1] | CC50 ([2]; host THP-1 cells)
27 | CO[C@H]1CC[C@H](N2C(=O)c3[nH]nc(CC(C)C)c3C2c2ccc(F)cc2)CC1 (some centres unmarked) [CMLD011036] | 4.60 | > 50 µM |  | 
28 | CC(=O)OCC(CO)N1C(=O)c2[nH]nc(CC(C)C)c2C1c1ccc(F)cc1 (centres unmarked) [CMLD011037] |  |  | ≥ 50.1 µM | ≥ 50.1 µM
29 | CC(C)Cc1n[nH]c2c1C(c1ccc(F)cc1)N(CC(C)(CO)CO)C2=O (centres unmarked) [CMLD011038] |  |  | ≥ 50.1 µM | ≥ 50.1 µM
30 | COc1ccc(OC)c(N2C(=O)c3[nH]nc(CC(C)C)c3C2c2ccc(F)cc2)c1 (centres unmarked) [CMLD011040] | 4.60 | ≥ 50.1 µM |  | 
31 | CC(C)Cc1n[nH]c2c1C(C1CCCCC1)N(c1ccc(C(C)(C)C)cc1)C2=O (centres unmarked) [CMLD011042] | 5.60 | ≥ 50.1 µM |  | 
32 | CC(C)Cc1n[nH]c2c1C(C1CCCCC1)N(c1ccc3c(c1)OCO3)C2=O (centres unmarked) [CMLD011043] | 5.30 | 15.8 µM |  | 
33 | COc1cccc(N2C(=O)c3[nH]nc(CC(C)C)c3C2C2CCCCC2)c1 (centres unmarked) [CMLD011044] |  |  | 6.3 µM | ≥ 50.1 µM
34 | COc1ccccc1N1C(=O)c2[nH]nc(CC(C)C)c2C1C1CCCCC1 (centres unmarked) [CMLD011045] |  |  | 10 µM | 25.1 µM
35 | COc1ccccc1N1C(=O)c2[nH]nc(CC(C)C)c2C1c1ccc(F)cc1 (centres unmarked) [CMLD011046] | 4.70 | > 50 µM |  | 
36 | CC(C)Cc1n[nH]c2c1C(c1ccccc1Cl)N(c1ccc(C(C)(C)C)cc1)C2=O (centres unmarked) [CMLD011047] |  |  | 3.2 µM | 7.9 µM
37 | COc1cc(N2C(=O)c3[nH]nc(CC(C)C)c3C2c2ccc(F)cc2)ccc1F (centres unmarked) [CMLD011073] |  |  | 20 µM | 15.8 µM
38 | COc1ccc(N2C(=O)c3[nH]nc(CC(C)C)c3C2c2nccs2)cc1 (centres unmarked) [CMLD011075] | 4.70 | > 50 µM |  | 
39 | COc1ccc(N2C(=O)c3[nH]nc(CC(C)C)c3[C@H]2c2cccc(C(F)(F)F)c2)cn1 [CMLD011076] |  |  | 10 µM | 15.8 µM
40 | COc1cc(N2C(=O)c3[nH]nc(CC(C)C)c3C2c2ccccc2Br)cc(OC)c1OC (centres unmarked) [CMLD011077] |  |  | 6.3 µM | 6.3 µM
41 | CC(C)Cc1n[nH]c2c1C(c1ccccc1Cl)N(c1ccc(F)cc1)C2=O (centres unmarked) [CMLD011078] |  |  | 4 µM | 20 µM
42 | COc1ccc(N2C(=O)c3[nH]nc(CC(C)C)c3C2c2ccc(F)cc2F)cc1 (centres unmarked) [CMLD011079] | 5.70 | 25.1 µM |  | 
43 | COC(=O)c1ccc(N2C(=O)c3[nH]nc(CC(C)C)c3C2c2cccc(C(F)(F)F)c2)cc1 (centres unmarked) [CMLD011080] |  |  | 10 µM | 39.8 µM
44 | CC(C)Cc1n[nH]c2c1C(c1cccc(C(F)(F)F)c1)N(c1ccc(Br)cc1)C2=O (centres unmarked) [CMLD011081] | 4.50 | 31.6 µM |  | 
45 | CC(C)Cc1n[nH]c2c1C(C1CCCCC1)N(c1ccc(Br)cc1)C2=O (centres unmarked) [CMLD011087] |  |  | 6.3 µM | 7.9 µM
46 | COc1ccc(N2C(=O)c3[nH]nc(CC(C)C)c3C2c2cccc(OC)c2)cc1 (centres unmarked) [CMLD011088] | 5.40 | 20 µM |  | 
47 | COc1ccc(N2C(=O)c3[nH]nc(CC(C)C)c3C2C2CCCCC2)cc1F (centres unmarked) [CMLD011090] |  |  | 5 µM | ≥ 50.1 µM
48 | Cc1ccc(CN2C(=O)c3[nH]nc(CC(C)C)c3C2c2ccc(F)cc2)o1 (centres unmarked) [CMLD011092] | 4.80 | 39.8 µM |  | 
49 | COc1ccc(N2C(=O)c3[nH]nc(-c4ccc(Cl)cc4Cl)c3C2c2ccc(F)cc2)cc1 (centres unmarked) [CMLD011093] | 4.70 | > 50 µM |  | 
50 | COC(=O)c1ccc(N2C(=O)c3[nH]nc(CC(C)C)c3C2C2CCCCC2)cc1 (centres unmarked) [CMLD011094] | 4.40 | > 50 µM |  | 
51 | CC(C)Cc1n[nH]c2c1C(c1ccc(F)cc1)N(c1ccccn1)C2=O (centres unmarked) [CMLD011095] | 4.70 | > 50 µM |  | 
52 | COc1ccc(N2C(=O)c3[nH]nc(CC(C)C)c3C2c2ccc(Cl)cc2)cc1 (centres unmarked) [CMLD011096] | 5.40 | 15.9 µM |  | 
